Our source for the inhibition values is patent EP1724268A1, “COMPOUND HAVING TGF-BETA INHIBITORY ACTIVITY AND PHARMACEUTICAL COMPOSITION CONTAINING SAME” (KIRIN BEER KABUSHIKI KAISHA, priority 2004, dated 2005).

The test relates to TGFβ signal. Description: TGFβ signal inhibitory activity, (SBE)4-Luc reporter in A549 cells (Test Examples 1A and 1B). Type of test: cell-based, human. The settings on record: Homo sapiens, A549, compounds of Reference Examples (Test Example 1B), read-out: TGFβ inhibition rate, %. Summed up:
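Stable A549 line carrying (SBE)4-Luc Smad3-binding reporter treated with compound plus TGFβ-1 (2 ng/ml) for 4 hr; luciferase read by chemiluminescence. Percent inhibition relative to TGFβ-only and untreated cells, tested at 3 µM and 10 µM, some also at 1 µM.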

Usually inhibition stands for the relative decrease from the control value, in per cent.

Turning to `COc1cc2c(Oc3cc4cccnc4nc3C)ccnc2cc1OCCCCO` [Compound r405], the inhibition at 3 µM was 92% and the inhibition at 10 µM came to 100%. For `COc1cc2c(Oc3cc4cnccc4nc3C)ccnc2cc1OCc1ccccc1` [Compound r406], in that order: 56% and 96%. For `COc1cc2c(Oc3cc4cnccc4nc3C)ccnc2cc1OCCO` [Compound r407], in that order: 71% and 97%. `COc1cc2c(Oc3cc4cnccc4nc3C)ccnc2cc1OCC(O)CO` (centres unmarked) [Compound r408]: the inhibition at 3 µM stood at 38% and the inhibition at 10 µM was determined as 79%. `COc1cc2c(Oc3cc4ccccc4nc3C)ccnc2cc1NCCN1CCOCC1` [Compound r410, [6-Methoxy-4-(2-methyl-quinolin-3-yloxy)-quinolin-7-yl]-(2-morpholin-4-yl-ethyl)-amine]: the inhibition at 3 µM worked out at 91% and the inhibition at 10 µM was found to be 100%. On to `COc1cc2c(Oc3cc4ccccc4nc3C)ccnc2cc1CCCO` [Compound r411], for which the inhibition at 3 µM amounted to 50% and the inhibition at 10 µM came out at 85%.

With `COc1cc2c(Oc3cc4ccccc4nc3C)ccnc2cc1CCCN1CCOCC1` [Compound r412], the inhibition at 3 µM is 77% and the inhibition at 10 µM turned out to be 99%. `CCOC(=O)/C=C/c1cc2nccc(Oc3cc4ccccc4nc3C)c2cc1OC` [Compound r413]: the inhibition at 3 µM was 31% and the inhibition at 10 µM was found to be 76%. For `COc1cc2nccc(Oc3cc4ccccc4nc3C)c2cc1OCc1ccccc1` [Compound r415, 6-Benzyloxy-7-methoxy-4-(2-methyl-quinolin-3-yloxy)-quinoline], in that order: 77% and 100%. Consider `COc1cc2nccc(Oc3cc4ccccc4nc3C)c2cc1OCCn1ccnc1` [Compound r416, 6-(2-Imidazol-1-yl-ethoxy)-7-methoxy-4-(2-methyl-quinolin-3-yloxy)-quinoline], for which the inhibition at 3 µM turned out to be 92% and the inhibition at 10 µM turned out to be 100%. On the same counts, the results for `CCOC(=O)c1cc(F)ccc1Sc1ccnc2cc(OC)c(OC)cc12` [Compound r419] are 7% and 67%. For `COc1cc2nccc(Oc3cc4cccnc4nc3-c3ccccc3)c2cc1OC` [Compound r422], in that order: 100% and 100%. As for `CCc1nc2ncccc2cc1Oc1ccnc2cc(OC)c(OC)cc12` [Compound r423], the inhibition at 3 µM is 88% and the inhibition at 10 µM is 100%.

On to `COc1cc2nccc(Oc3cnc4ncccc4c3)c2cc1OC` [Compound r427], for which the inhibition at 3 µM came out at 44% and the inhibition at 10 µM was 80%.

For `COc1cc2nccc(Oc3cc(C)c(C)nc3-c3ccc(O)nc3)c2cc1OC` [Compound r430], the inhibition at 3 µM stood at 19% and the inhibition at 10 µM was found to be 78%. For `Cc1ccc(-c2nc(C)c(C)cc2Oc2ccnc3ccccc23)nc1` [Compound r431], in that order: 97% and 99%.

As to `Cc1ccc(-c2nc(C)c(C)cc2Oc2ccnc3cc(Cl)ccc23)nc1` [Compound r432], the inhibition at 3 µM came out at 99% and the inhibition at 10 µM is 100%. For `COc1cc2c(Oc3cc4cccnc4nc3C)ccnc2cc1OCCN1CCOCC1` [Compound r441], in that order: 97% and 100%. For `COc1cc2c(Oc3cc(C)c(C)nc3-c3cccc(C)n3)ccnc2cc1OCc1ccccc1` [Compound r442], in that order: 70% and 100%. On the same counts, the results for `COc1cc2c(Oc3cc(C)c(C)nc3-c3cccc(C)n3)ccnc2cc1O` [Compound r443] are 60% and 97%. Consider `COc1cc2c(Oc3cc(C)c(C)nc3-c3cccnc3)ccnc2cc1OCCCCO` [Compound r444], for which the inhibition at 3 µM came to 100%.
